This passage reports target mRNA inhibition results from the OligoGym collection.

This data set has as its target HSD17B13. The following applies: ASO, HepaRG.

After the bases stand the sugars from the 5' end (letter, count) and the backbone: PS all phosphorothioate, else s phosphorothioate and o phosphodiester by linkage. Methylation of C is not given here. e = 2'-O-(2-methoxyethyl) (MOE); k = constrained ethyl (cEt); d = 2'-deoxy (DNA); m = 2'-O-methyl

In turn, TGCTAGTAATTGCATC (sugars k3 d10 k3, PS) showed a target mRNA inhibition (1 µM) of 17%. “TGCTAGTGCCAAACCA (sugars k3 d1 m1 d8 k3, PS)”: the target mRNA inhibition was found to be 7% (0.02 µM); 29% (0.078 µM); 46% (0.313 µM); 80% (1 µM); 67% (1.25 µM); 90% (5 µM).

Sequence “TGCTGCATTAATGCCA (sugars k3 d1 m1 d8 k3, PS)” registered a target mRNA inhibition (1 µM) of 32%. TGCTGCATTAATGCCA (sugars k3 d10 k3, PS): for the setting “1 µM”, the target mRNA inhibition is 15%. Sequence “TGCTGCTAGTGCCAAA (sugars k3 d9 k3 e1, PS)” gave a target mRNA inhibition (1 µM) of 56%.

In turn, “TGCTGCTAGTGCCAAA (sugars kkdddddddddkekek, PS)” showed a target mRNA inhibition (1 µM) of 40%.

Regarding TGCTTACGACAGGTCA (sugars k3 d10 k3, PS), the target mRNA inhibition came to 0% (0.02 µM); 21% (0.078 µM); 57% (0.313 µM); 81% (1 µM); 70% (1.25 µM); 90% (5 µM).

Under “1 µM”, TGCTTTAGCTTAAACT (sugars k3 d10 k3, PS) displayed a target mRNA inhibition of 51%. Turning to TGGCTATAGTAATTGC (sugars k3 d10 k3, PS), the target mRNA inhibition (1 µM) is 34%.

With TGGCTTAATGTTCAGT (sugars k3 d10 k3, PS), under “1 µM”, the target mRNA inhibition was 50%. In the case of TGGGAAATTGTTGCTG (sugars k3 d10 k3, PS), the target mRNA inhibition (1 µM) turned out to be 38%.

“TGGGACCAAGGATATA (sugars kkdddddddddkekek, PS)” showed a target mRNA inhibition (1 µM) of 30%. On the same count and under the same terms, for TGGGAGTCGGATTATT (sugars k3 d10 k3, PS) the value was 44%; for TGGGATACTATTCTCC (sugars k3 d10 k3, PS), 18%; for TGGGTCCATTGTTTCT (sugars k3 d10 k3, PS), 35%. In the case of “TGGTAACGGTGATCAA (sugars k3 d1 m1 d8 k3, PS)”, the target mRNA inhibition (1 µM) was 41%.

Turning to “TGGTAACGGTGATCAA (sugars kkdddddddddkekek, PS)”, under “1 µM”, the target mRNA inhibition is 26%. Turning to “TGTAAGAGTCAGTATC (sugars k3 d1 m1 d8 k3, PS)”, the target mRNA inhibition (1 µM) was 29%. On to “TGTAAGAGTCAGTATC (sugars kkdddddddddkekek, PS)”, for which the target mRNA inhibition (1 µM) turned out to be 35%. “TGTAATAGCCAGTACA (sugars k3 d9 k3 e1, PS)” displayed a target mRNA inhibition (1 µM) of 34%. The sequence “TGTAATAGCCAGTACA (sugars kkdddddddddkekek, PS)” registered a target mRNA inhibition (1 µM) of 45%. Still for that read-out and setting: for TGTAATTGGCTCTTGA (sugars k3 d10 k3, PS) the value was 0%.

TGTACCAAACTTGCCC (sugars k3 d10 k3, PS) registered a target mRNA inhibition (1 µM) of 53%. Consider TGTAGTCCTAGGGAGG (sugars k3 d10 k3, PS), for which the target mRNA inhibition came out at 0% (0.02 µM); 0% (0.078 µM); 32% (0.313 µM); 86% (1 µM); 66% (1.25 µM); 83% (5 µM). “TGTAGTGGGAGTCGGA (sugars k3 d1 m1 d8 k3, PS)” displayed a target mRNA inhibition (1 µM) of 50%. Where the note is “1 µM”, “TGTAGTGGGAGTCGGA (sugars k3 d9 k3 e1, PS)” showed a target mRNA inhibition of 53%.

TGTATGAGGTCTCTCA (sugars k3 d10 k3, PS): where the note is “1 µM”, the target mRNA inhibition came out at 66%. On the same count and under the same terms, the same measure for “TGTCCAGGTTGAGATA (sugars k3 d9 k3 e1, PS)”: 45%; for TGTCCAGGTTGAGATA (sugars k3 d10 k3, PS): 48%.

With TGTGAGAAGGCGGTAT (sugars k3 d10 k3, PS), under “1 µM”, the target mRNA inhibition is 20%. TGTTATCAGAAACTTA (sugars k3 d10 k3, PS): the target mRNA inhibition (1 µM) worked out at 44%. As for TGTTGATATTCTGTGG (sugars k3 d10 k3, PS), the target mRNA inhibition (1 µM) was 68%.
